BindingDB's records for doi:10.1021/jm100478y (University of North Carolina at Chapel Hill, 2010)

Molecular target: T1, Histone-lysine N-methyltransferase EHMT2 (Homo sapiens, UniProt Q96KQ7)
T1 sequence (Q96KQ7 whole entry): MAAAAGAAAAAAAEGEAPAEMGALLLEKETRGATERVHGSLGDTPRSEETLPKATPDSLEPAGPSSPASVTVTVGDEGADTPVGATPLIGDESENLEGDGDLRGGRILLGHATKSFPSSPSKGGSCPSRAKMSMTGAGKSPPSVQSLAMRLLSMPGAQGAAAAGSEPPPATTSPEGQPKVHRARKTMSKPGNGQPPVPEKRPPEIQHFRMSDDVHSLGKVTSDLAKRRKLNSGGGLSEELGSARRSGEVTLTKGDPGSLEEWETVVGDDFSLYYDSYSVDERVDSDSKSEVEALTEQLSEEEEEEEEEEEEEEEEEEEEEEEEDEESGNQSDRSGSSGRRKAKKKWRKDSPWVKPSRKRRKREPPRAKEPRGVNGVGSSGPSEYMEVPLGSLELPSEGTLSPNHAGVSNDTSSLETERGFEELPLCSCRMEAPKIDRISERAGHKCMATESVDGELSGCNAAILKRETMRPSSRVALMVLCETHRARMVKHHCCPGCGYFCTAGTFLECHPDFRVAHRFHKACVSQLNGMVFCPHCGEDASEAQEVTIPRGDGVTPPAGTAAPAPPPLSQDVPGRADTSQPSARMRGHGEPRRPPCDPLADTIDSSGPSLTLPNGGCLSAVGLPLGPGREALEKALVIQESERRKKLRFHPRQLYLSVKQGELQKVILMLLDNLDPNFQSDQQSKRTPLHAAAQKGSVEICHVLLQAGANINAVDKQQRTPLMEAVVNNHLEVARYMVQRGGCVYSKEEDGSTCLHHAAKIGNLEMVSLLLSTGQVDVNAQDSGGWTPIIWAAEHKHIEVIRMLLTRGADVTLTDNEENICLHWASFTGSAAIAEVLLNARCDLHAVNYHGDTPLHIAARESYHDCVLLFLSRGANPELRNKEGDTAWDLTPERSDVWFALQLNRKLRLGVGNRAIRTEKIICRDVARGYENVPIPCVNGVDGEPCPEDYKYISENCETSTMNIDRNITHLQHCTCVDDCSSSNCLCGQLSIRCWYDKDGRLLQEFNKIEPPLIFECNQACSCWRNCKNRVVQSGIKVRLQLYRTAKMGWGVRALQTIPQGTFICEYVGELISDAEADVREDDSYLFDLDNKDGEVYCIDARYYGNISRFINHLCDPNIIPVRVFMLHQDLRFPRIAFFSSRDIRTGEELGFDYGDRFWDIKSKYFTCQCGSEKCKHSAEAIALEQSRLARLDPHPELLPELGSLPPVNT
Experiment: Inhibition of methyl transferase activity of G9a assessed as inhibition of H3K9 methylation by chemiluminescence based oxygen tunneling assay

| IC50 | Structure (SMILES) |
| --- | --- |
| > 10 µM | COc1cc2nc(N3CCCN(C)CC3)nc(NC3CCNCC3)c2cc1OC [6,7-Dimethoxy-2-(4-methyl-1,4-diazepan-1-yl)-N-(piperidin-4-yl)quinazolin-4-amine] |
| > 10 µM | COc1cc2nc(N3CCCN(C)CC3)nc(NC3CCOCC3)c2cc1OC [6,7-dimethoxy-2-(4-methyl-1,4-diazepan-1-yl)-N-(tetrahydro-2H-pyran-4-yl)quinazolin-4-amine] |
